According to ChEMBL document CHEMBL4651402, “Screening of ~5500 FDA-approved drugs and clinical candidates for anti-SARS-CoV-2 activity” (2021):
Square brackets hold non-standard residues; d marks the D form. Peptide text beside a SMILES is read from it. Orn = NCCC[C@H](N)C(=O)O

Tested on: SARS-CoV-2
Test: microbe, parasite or virus in culture
Conditions: Severe acute respiratory syndrome coronavirus 2, Vero C1008, 48 h

Structure (SMILES)	IC50	IC50 (read-out: pIC50 (converted))
COCCNCc1ccc(-c2cc3nccc(Oc4ccc(NC(=S)NC(=O)Cc5ccc(F)cc5)cc4F)c3s2)nc1 [GLESATINIB]	> 20 µM	> 20 µM
Cc1ccc(S(=O)(=O)NC(=O)NN2CC3CCCC3C2)cc1 (stereo unspecified) [GLICLAZIDE]	> 20 µM	> 20 µM
COc1ccc(F)cc1[C@H](C)NC(=O)Cc1ccc(S(=O)(=O)Nc2ncc(CC(C)C)cn2)cc1 [GLIFLUMIDE]	> 20 µM	> 20 µM
CCC1=C(C)CN(C(=O)NCCc2ccc(S(=O)(=O)NC(=O)N[C@H]3CC[C@H](C)CC3)cc2)C1=O [GLIMEPIRIDE]	> 20 µM	> 20 µM
Cc1cnc(C(=O)NCCc2ccc(S(=O)(=O)NC(=O)NC3CCCCC3)cc2)cn1 [GLIPIZIDE]	> 20 µM	> 20 µM
COc1ccc2c(c1)C(=O)N(CCc1ccc(S(=O)(=O)NC(=O)NC3CCCCC3)cc1)C(=O)C2(C)C [GLIQUIDONE]	> 20 µM	> 20 µM
COc1ccccc1C(=O)NCCc1ccc(S(=O)(=O)NC(=O)NC2CCCC2)cc1 [GLISENTIDE]	> 20 µM	> 20 µM
Cc1cc(C(=O)NCCc2ccc(S(=O)(=O)NC(=O)NN3CCCCCC3)cc2)no1 [GLISOXEPIDE]	> 20 µM	> 20 µM
C[C@]1(C(=O)N(CCCC(=O)O)Cc2cccc(Cl)c2)CCN1C(=O)c1csc2ccccc12 [GLPG-0974]	> 20 µM	> 20 µM
O=C1O[C@H](CO)[C@@H](O)[C@H](O)[C@H]1O [GLUCONOLACTONE]	> 20 µM	> 20 µM
N[C@H]1C(O)O[C@H](CO)[C@@H](O)[C@@H]1O (stereo partly specified) [GLUCOSAMINE]	> 20 µM	> 20 µM
N[C@@H](C(=O)O)[C@@H](O)[C@H](O)[C@H](O)CO [GLUCOSAMINIC ACID]	> 20 µM	> 20 µM
N[C@@H](CCC(=O)O)C(=O)O [GLUTAMIC ACID]	> 20 µM	> 20 µM
NC(=O)CC[C@H](N)C(=O)O [GLUTAMINE]	> 20 µM	> 20 µM
N[C@@H](CCC(=O)N[C@@H](CS)C(=O)NCC(=O)O)C(=O)O [GLUTATHIONE]	> 20 µM	> 20 µM
CCC1(c2ccccc2)CCC(=O)NC1=O (stereo unspecified) [GLUTETHIMIDE]	> 20 µM	> 20 µM
COc1ccc(Cl)cc1C(=O)NCCc1ccc(S(=O)(=O)NC(=O)NC2CCCCC2)cc1 [GLYBURIDE]	> 20 µM	> 20 µM
OCC(O)CO [GLYCERIN]	> 20 µM	> 20 µM
CCCCCCCCCCCC(=O)OCC(O)CO (stereo unspecified) [GLYCEROL MONOLAURATE]	> 20 µM	> 20 µM
CCCCCCCCCCCCCCCC(=O)OCC(O)CO (stereo unspecified) [GLYCEROL MONOPALMITATE]	> 20 µM	> 20 µM
O=P(O)(O)OC(CO)CO [GLYCERYLPHOSPHATE]	> 20 µM	> 20 µM
NCC(=O)O [GLYCINE]	> 20 µM	> 20 µM
C[C@H](CCC(=O)NCC(=O)O)[C@H]1CC[C@H]2[C@@H]3[C@H](O)C[C@@H]4C[C@H](O)CC[C@]4(C)[C@H]3C[C@H](O)[C@]12C [GLYCOCHOLIC ACID]	> 20 µM	> 20 µM

Structure (SMILES)	IC50	IC50 (read-out: pIC50 (converted))
O=C(O)CO [GLYCOLIC ACID]	> 20 µM	> 20 µM
C[N+]1(C)CCC(OC(=O)C(O)(c2ccccc2)C2CCCC2)C1 (stereo unspecified) [GLYCOPYRRONIUM]	> 20 µM	> 20 µM
CC1(C)[C@@H](O[C@H]2O[C@H](C(=O)O)[C@@H](O)[C@H](O)[C@H]2O[C@@H]2O[C@H](C(=O)O)[C@@H](O)[C@H](O)[C@H]2O)CC[C@]2(C)[C@H]3C(=O)C=C4[C@@H]5C[C@@](C)(C(=O)O)CC[C@]5(C)CC[C@@]4(C)[C@]3(C)CC[C@@H]12 [GLYCYRRHIZIN]	> 20 µM	> 20 µM
O=C(NC1CCCCC1)NS(=O)(=O)c1ccc2c(c1)CCC2 [GLYHEXAMIDE]	> 20 µM	> 20 µM
COCCOc1cnc(NS(=O)(=O)c2ccccc2)nc1 [GLYMIDINE]	> 20 µM	> 20 µM
Cc1ccc(S(=O)(=O)NC(=O)NC2CCCCCCC2)cc1 [GLYOCTAMIDE]	> 20 µM	> 20 µM
CC(C)C[C@H](NC(=O)CNC(=O)[C@H](Cc1ccc(O)cc1)NC(=O)[C@H](CO)NC(=O)[C@H](Cc1c[nH]c2ccccc12)NC(=O)[C@H](Cc1cnc[nH]1)NC(=O)[C@@H]1CCC(=O)N1)C(=O)N[C@@H](CCCNC(=N)N)C(=O)N1CCC[C@H]1C(=O)NCC(N)=O [GONADORELIN]	> 20 µM	> 20 µM
Cc1cc2c(C(C)C)c(O)c(O)c(C=O)c2c(O)c1-c1c(C)cc2c(C(C)C)c(O)c(O)c(C=O)c2c1O [GOSSYPOL]	> 20 µM	> 20 µM
CC(C)C[C@@H]1NC(=O)[C@H](CCCN)NC(=O)[C@H](C(C)C)NC(=O)[C@@H]2CCCN2C(=O)[C@@H](Cc2ccccc2)NC(=O)[C@H](CC(C)C)NC(=O)[C@H](CCCN)NC(=O)[C@H](C(C)C)NC(=O)[C@@H]2CCCN2C(=O)[C@@H](Cc2ccccc2)NC1=O [GRAMICIDIN S] (cyclo(L[dF]PV[Orn]L[dF]PV[Orn]))	> 20 µM	> 20 µM
CN(C)Cc1c[nH]c2ccccc12 [GRAMINE]	> 20 µM	> 20 µM
CCOC(=O)C(COC(=O)Cc1ccc(NC(=O)c2ccccc2-c2ccc(C(F)(F)F)cc2)c(C(=O)N(C)C)c1)(C(=O)OCC)c1ccccc1 [GRANOTAPIDE]	> 20 µM	> 20 µM
CCc1nc2c(C)nc(C)cc2n1-c1ccc(CCNC(=O)NS(=O)(=O)c2ccc(C)cc2)cc1 [GRAPIPRANT]	> 20 µM	> 20 µM
Cn1c(-c2ccc3c(c2)OCO3)cc(=O)c2ccccc21 [GRAVEOLINE]	> 20 µM	> 20 µM
C=C[C@@H]1C[C@]1(NC(=O)[C@@H]1C[C@@H]2CN1C(=O)[C@H](C(C)(C)C)NC(=O)O[C@@H]1C[C@H]1CCCCCc1nc3ccc(OC)cc3nc1O2)C(=O)NS(=O)(=O)C1CC1 [GRAZOPREVIR ANHYDROUS]	> 20 µM	> 20 µM
COC1=CC(=O)C[C@@H](C)[C@]12Oc1c(Cl)c(OC)cc(OC)c1C2=O [GRISEOFULVIN]	> 20 µM	> 20 µM
CN1C(=O)[C@@H](NC(=O)c2n[nH]c(Cc3ccccc3)n2)COc2ccccc21 [GSK2982772]	> 20 µM	> 20 µM
CC(C)c1noc(N2CCC(COc3ccc(-c4ccc(S(C)(=O)=O)cc4)nc3)CC2)n1 [GSK-1292263]	> 20 µM	> 20 µM
CONC(=O)c1ccccc1Nc1cc(Nc2cc(C)nn2C(C)C)ncc1Cl [GSK-2256098]	> 20 µM	> 20 µM
Cc1c(Cn2c(C)nc3c(C(=O)O)cc(N4CCOCC4)cc32)cccc1C(F)(F)F [GSK-2636771]	> 20 µM	> 20 µM
COc1ccc(/C=C2\CCCN=C2c2cccnc2)c(OC)c1 [GTS-21]	> 20 µM	> 20 µM
COc1ccccc1O [GUAIACOL]	> 20 µM	> 20 µM
COc1ccccc1OCC(O)CO (stereo unspecified) [GUAIFENESIN]	> 20 µM	> 20 µM
N=C(N)N/N=C/c1c(Cl)cccc1Cl [GUANABENZ]	> 20 µM	> 20 µM

Structure (SMILES)	IC50	IC50 (read-out: pIC50 (converted))
N=C(N)NCCN1CCCCCCC1 [GUANETHIDINE]	> 20 µM	> 20 µM
N=C(N)NC(=O)Cc1c(Cl)cccc1Cl [GUANFACINE]	> 20 µM	> 20 µM
N=C(N)N [GUANIDINE]	> 20 µM	> 20 µM
N=C(NO)N/N=C/c1c(Cl)cccc1Cl [GUANOXABENZ]	> 20 µM	> 20 µM
N=C(N)NCC1COc2ccccc2O1 (stereo unspecified) [GUANOXAN]	> 20 µM	> 20 µM
N=C(N)NCCCOc1ccccc1 [GUANOXYFEN]	> 20 µM	> 20 µM
C/C=C1\C(=O)C[C@H]2[C@@H]3CCC4=CC(=O)CC[C@]4(C)[C@H]3CC[C@]12C [GUGGULSTERONE]	> 20 µM	> 20 µM
N#CCC1CCN(c2nc(Nc3ccc(N4CCC(O)CC4)cc3)c3c(=O)[nH]ncc3n2)CC1 [GUSACITINIB]	> 20 µM	> 20 µM
Cc1cc(SCc2sc(-c3ccc(C(F)(F)F)cc3)nc2C)ccc1OCC(=O)O [GW501516]	> 20 µM	> 20 µM
Cc1nc(-c2ccc(C(F)(F)F)cc2)sc1C(=O)NCc1ccc(OC(C)(C)C(=O)O)cc1 [GW590735]	> 20 µM	> 20 µM
O=C(NCC1CCOCC1)c1cnc(Nc2ccc(Cl)cc2Cl)nc1C(F)(F)F [GW842166X]	> 20 µM	> 20 µM
CCC(=O)NS(=O)(=O)c1ccc(NC(=O)COc2ccc(Cl)cc2C(=O)c2cc(Cl)cc(C#N)c2)c(C)c1 [GW-695634]	> 20 µM	> 20 µM
O=C1CN=C(c2ccccc2)c2cc(Cl)ccc2N1CC(F)(F)F [HALAZEPAM]	> 20 µM	> 20 µM
CC1(C)O[C@@H]2C[C@H]3[C@@H]4CCC5=CC(=O)CC[C@]5(C)[C@@]4(F)[C@@H](O)C[C@]3(C)[C@]2(C(=O)CCl)O1 [HALCINONIDE]	> 20 µM	> 20 µM
O=C(CC1NCCCC1O)Cn1cnc2cc(Br)c(Cl)cc2c1=O (stereo unspecified) [HALOFUGINONE]	> 20 µM	> 20 µM
CCCCCCCCCC(=O)OC1(c2ccc(Cl)cc2)CCN(CCCC(=O)c2ccc(F)cc2)CC1 [HALOPERIDOL DECANOATE]	> 20 µM	> 20 µM
O=C(CCCN1CCC(O)(c2ccc(Cl)cc2)CC1)c1ccc(F)cc1 [HALOPERIDOL]	> 20 µM	> 20 µM
Clc1cc(Cl)c(OCC#CI)cc1Cl [HALOPROGIN]	> 20 µM	> 20 µM
COc1ccc2c3c([nH]c2c1)C(C)=NCC3 [HARMALINE]	> 20 µM	> 20 µM
Cc1nccc2c1[nH]c1ccccc12 [HARMAN]	> 20 µM	> 20 µM
COc1ccc2c(c1)[nH]c1c(C)nccc12 [HARMINE]	> 20 µM	> 20 µM
CO[C@H](C)[C@](O)(C(=O)OCC1=CCN2CC[C@H](O)[C@@H]12)C(C)C [HELIOTRINE]	> 20 µM	> 20 µM
